Where no end group is shown, it is not given here.
system: anti-C33 antibodies; experiment: Spotscan point substitution tests on the Lys-Phe-Ser-Ser-Arg-Leu-Gly-Ala peptide; format: binding; conditions: point or double substitution of amino acids
Description: In order to determine the degree to which the nature of the various amino acids constituting the Lys-Phe-Ser-Ser-Arg-Leu-Gly-Ala peptide can vary without reducing the antigenic properties of said peptide with respect to anti-C33 antibodies, point substitution tests were performed.
The peptides were synthesized by the method described in the previous example, known as "Spotscan", substituting each amino acid on the peptide at a given position by the other nineteen. These peptides were then tested as described above. The size of each residue can thus be examined and the peptide grouping the best amino acids in each position can then be synthesized.

Sequence	response compared with the Lys-Phe-Ser-Ser-Arg-Leu-Gly-Ala peptide
KASSYLGA [SEQ ID NO: 36]	advantageously
KFSSGLGA [SEQ ID NO: 32]	better response
KFSSPLGA [SEQ ID NO: 33]	better response
KFSSYLGA [SEQ ID NO: 34]	better response
KHSSYLGA [SEQ ID NO: 37]	advantageously
KYSSRLGA [SEQ ID NO: 35]	equivalent response

system: anti-C33 70-13 or 12A1H2 monoclonal antibodies; experiment: Spotscan immunoreactivity of overlapping octapeptides with anti-C33 monoclonal antibodies; format: binding; conditions: monoclonal antibodies 100 nM; β-galactosidase anti-mouse conjugate 1/200; estimated qualitatively
Description: The synthesis was conducted on an activated cellulose membrane according to the technique developed by Berg et al. (1989, J. Ann. Chem. Soc., 111, 8024-8026) and available from Cambridge Research Biochemicals (trade name Spotscan). This technique allows simultaneous synthesis of a large number of peptides. The escerified amino acids used in the synthesis have an α-amino group protected by an FMOC group (Nova Biochem) and side groups protected by protective groups such as, for example, trityl, t-butyl ester, or t-butyl ether. The esterified amino acids are dissolved in N-methylpyrrolidone (NMP) at the concentration of […] and 0.9 μl are deposited at the attachment sites of bromphenol blue. After 15 minutes incubation, amino acids are deposited once again, followed by a further incubation of 15 minutes. If the coupling between the two amino acids is done correctly, a color change is observed (transition from blue to yellow-green). After three washings in DMF, an acetylation step is performed by acetic anhydride. Then the terminal amino groups of the peptides undergoing synthesis are deprotected by piperidine in a 20% solution in DMF. The deposition sites are re-stained by a 1% bromophenol blue solution in DMF, washed three times with methanol, and dried. This sequence of operations constitutes one amino acid addition cycle, and this cycle is repeated until synthesis is complete. When all the amino acids have been added, the NH2 terminal group of the last amino acid is deprotected by piperidine in a 20% solution in DMF and acetylated with acetic anhydride. The protective groups of the side chain are removed by a mixture of dichloromethane/trifluoroacetic acid/triisobutylsilane (5 ml/5 ml/250 μl). The immunoreactivity of the peptides thus synthesized can then be tested, for example, by ELISA.
After synthesis of the various octapeptides, the cellulose membrane is rinsed with methanol, washed in TBS (0.1 M Tris, pH 7.2) then incubated overnight at room temperature in saturation buffer (available from Cambridge Research Biochemicals). After several washings with TBS-T (0.1 M Tris, pH 7.2-0.05% Tween 20), the membrane is placed in contact with a solution of anti-C33 70-13 or 12A1H2 monoclonal antibodies (100 nM), and incubated for four hours at room temperature. After three washings with TBS-T, the anti-mouse-immunoglobulin conjugate labeled with β-galactosidase (available from Cambridge Research Biochemicals) is added to a 1/200 dilution and these materials are incubated for two hours at room temperature. After several washings of the membrane with 0.05% TBS-Tween and PBS, the immunoreactivity at the various spots is developed by adding a solution of substrate (5-bromo-4-chloro-3-indoyl-β-D-galactopyranoside in PBS containing magnesium chloride and potassium ferricyanide) and incubating for ten to forty minutes. The color of the spots is estimated qualitatively on a numerical scale from 0 to 5.

Sequence	color of the spots (immunoreactivity)
DGAKFSSR	first color
FSSRLGAA	maximum
KFSSRLGA	maximum
RLGAAGAE	disappears completely
SRLGAAGA	very slight coloration

system: mixture of human sera from patients infected by HCV (anti-C33 antibodies); experiment: Spotscan immunoreactivity of overlapping octapeptides with mixture of human sera; format: binding; conditions: 1/50 dilution of human sera mixture; anti-human-immunoglobulin conjugate 1/200

Sequence	color of the spots (immunoreactivity)
FSSRLGAA	maximum color

Source: patent US5985541A, “Peptide capable of being recognized by antibodies recognizing the C33 antigen of hepatitis C virus” (Bio Merieux, priority 1995, dated 1999)
